Test results as given in article PMC11356571, “The Comparative Metabolism of a Novel Hepatocellular Carcinoma Therapeutic Agent, 2,3-Diamino-N-(4-(benzo[d]thiazol-2-yl)phenyl)propanamide, in Human and Animal Hepatocytes” (Metabolites, 2024).

Experiment: Metabolic stability in mouse hepatocytes
Type: in vitro ADME
Settings: cryopreserved hepatocytes
Method: Cryopreserved hepatocytes were carefully thawed in a 37 °C water bath for approximately 1 min, and transferred to a tube containing pre-warmed thawing medium. The supernatants were removed and the pellets were resuspended in KHB at a final cell density of 1 × 10^6 cells/mL, based on hemocytometer counting using trypan blue exclusion. A ETN101 solution was prepared by dissolving ETN101 in water at 4 mM and diluted by KHB at the concentration of 4 μM of ETN101. Sixty microliters each of hepatocyte suspensions and 4 μM of ETN101 were added in a 96-well plate and incubated for 0, 5, 15, 30, and 45 min at 37 °C in a CO2 incubator. All incubations were conducted in triplicates. Reactions were terminated by the addition of 120 μL of ice-cold acetonitrile and followed by vortex mixing. After centrifugation at 13,000 rpm for 8 min at 4 °C, 5 μL of internal standard (IS, camptothecin in acetonitrile at 780 ng/mL) was added to 60 μL of supernatant. A 2 μL aliquot was injected into the LC-MS/MS system. The reliability of the analysis was confirmed by incorporating three different levels of quality control samples at the beginning and end of each analytical batch. The disappearance rate (k) of ETN101 was calculated by determined peak area ratio of ETN101 to IS over incubation period. Subsequently, half-life (t1/2), intrinsic clearance (Clint), and intrinsic hepatic clearance (Clint,hep) of ETN101 in human and animal hepatocytes were calculated using the following equation [34]: t1/2(min)=ln2/−k(elimination slope) ClintμL/min/10^6 cells=ln2/t1/2×μL incubation/hepatocytes (10^6 cells) Clint,hepmL/min/kg=Clint/1000×A×10^6 cells/g liver×B g liver/kg body weight […]
For the metabolic stability assay, an LC-MS/MS system was employed, consisting of an Agilent 1260 series HPLC system (Agilent Technologies Inc., Santa Clara, CA, USA) coupled to an API 4000 mass spectrometer (AB SCIEX, Concord, Vaughan, ON, Canada) equipped with a turbo electrospray interface. […] ETN101 and IS were detected using multiple reaction monitoring (MRM) mode under positive electrospray ionization (ESI). […]

NCC(N)C(=O)Nc1ccc(-c2nc3ccccc3s2)cc1 (stereo not drawn) [ETN101, 2,3-diamino-N-(4-(benzo[d]thiazol-2-yl)phenyl)propanamide]
half-life at 2 µM (45 min incubation at 37 °C): 2.01 h
hepatocyte CLint at 2 µM (45 min incubation at 37 °C): 11.5 µL/min/1e6 cells
CLint scaled at 2 µM (scaled from Clint): 8.15 L/h/kg
